According to US10287313B2, “RNA monomers containing 0-acetal levulinyl ester groups and their use in RNA microarrays” (THE ROYAL INSTITUTION FOR THE ADVANCEMENT OF …, priority 2008, dated 2019):
In the oligonucleotide strings, read from the 5' end, every base follows the letter of its sugar. An asterisk marks phosphorothioate; unmarked linkages are phosphodiester. Other units and linkages are bracketed, terminal groups are in braces. A string of capitals states the bases alone. d = 2'-deoxy (DNA); r = 2'-OH (RNA)

What was measured:
[1] = Tm of 21-nt RNAs synthesized from various chemistries; format: physicochemical; conditions: base sequence r(GCUUGAAGUCUUUAAUUAA)-d(TT)
luciferase mRNA = assay: RNAi assay that targets luciferase mRNA (luciferase gene knockdown by siRNA duplexes); format: cell-based; conditions: antisense strand annealed to common sense strand synthesized via 2′-TBDMS chemistry; light units relative to Renilla control; compared with TBDMS, TOM and ACE derived duplexes
Text: The fully deprotected antisense strands were synthesized by TBDMS, TOM, ACE and ALE chemistries, whereas the complementary sense strand of the siRNA duplex was synthesized by TBDMS chemistry.
As a final check, we evaluated the activity of all RNAs synthesized in an RNAi assay that targets luciferase mRNA (Dowler, T. et al. Nucleic Acids Res 2006, 34, 1669-75). Each of the antisense strands prepared by the various chemistries were allowed to anneal to a common sense strand synthesized via 2′-TBDMS chemistry.

| Substance | Tm [1] [°C] | gene silencing activity (luciferase gene knockdown) (luciferase mRNA) |
| --- | --- | --- |
| r(GCUUGAAGUCUUUAAUUAA)-d(TT) [ACE] (antisense rGrCrUrUrGrArArGrUrCrUrUrUrArArUrUrArAdTdT) [21-nt antisense siRNA strand from 2′-O-ACE chemistry, crude RNA purchased from Dharmacon] | 59.5 | – |
| r(GCUUGAAGUCUUUAAUUAA)-d(TT) [ALE] (antisense rGrCrUrUrGrArArGrUrCrUrUrUrArArUrUrArAdTdT) [21-nt antisense siRNA strand synthesized from 2′-O-ALE chemistry] | 59.4 | same gene silencing activity |
| r(GCUUGAAGUCUUUAAUUAA)-d(TT) [TBDMS] (RNA, 3' dTdT, backbone not given here) [21-nt antisense siRNA strand synthesized from 2′-O-TBDMS chemistry] | 59.8 | – |
| r(GCUUGAAGUCUUUAAUUAA)-d(TT) [TOM] (antisense rGrCrUrUrGrArArGrUrCrUrUrUrArArUrUrArAdTdT) [21-nt antisense siRNA strand synthesized from 2′-O-TOM chemistry] | 60.1 | – |
